Activity calls are given as the source filed them. The calls are words filed in the database; no cut-off is given here.

Sequence of Transient receptor potential cation channel subfamily M member 7 (Rattus norvegicus) (Q925B3 whole entry): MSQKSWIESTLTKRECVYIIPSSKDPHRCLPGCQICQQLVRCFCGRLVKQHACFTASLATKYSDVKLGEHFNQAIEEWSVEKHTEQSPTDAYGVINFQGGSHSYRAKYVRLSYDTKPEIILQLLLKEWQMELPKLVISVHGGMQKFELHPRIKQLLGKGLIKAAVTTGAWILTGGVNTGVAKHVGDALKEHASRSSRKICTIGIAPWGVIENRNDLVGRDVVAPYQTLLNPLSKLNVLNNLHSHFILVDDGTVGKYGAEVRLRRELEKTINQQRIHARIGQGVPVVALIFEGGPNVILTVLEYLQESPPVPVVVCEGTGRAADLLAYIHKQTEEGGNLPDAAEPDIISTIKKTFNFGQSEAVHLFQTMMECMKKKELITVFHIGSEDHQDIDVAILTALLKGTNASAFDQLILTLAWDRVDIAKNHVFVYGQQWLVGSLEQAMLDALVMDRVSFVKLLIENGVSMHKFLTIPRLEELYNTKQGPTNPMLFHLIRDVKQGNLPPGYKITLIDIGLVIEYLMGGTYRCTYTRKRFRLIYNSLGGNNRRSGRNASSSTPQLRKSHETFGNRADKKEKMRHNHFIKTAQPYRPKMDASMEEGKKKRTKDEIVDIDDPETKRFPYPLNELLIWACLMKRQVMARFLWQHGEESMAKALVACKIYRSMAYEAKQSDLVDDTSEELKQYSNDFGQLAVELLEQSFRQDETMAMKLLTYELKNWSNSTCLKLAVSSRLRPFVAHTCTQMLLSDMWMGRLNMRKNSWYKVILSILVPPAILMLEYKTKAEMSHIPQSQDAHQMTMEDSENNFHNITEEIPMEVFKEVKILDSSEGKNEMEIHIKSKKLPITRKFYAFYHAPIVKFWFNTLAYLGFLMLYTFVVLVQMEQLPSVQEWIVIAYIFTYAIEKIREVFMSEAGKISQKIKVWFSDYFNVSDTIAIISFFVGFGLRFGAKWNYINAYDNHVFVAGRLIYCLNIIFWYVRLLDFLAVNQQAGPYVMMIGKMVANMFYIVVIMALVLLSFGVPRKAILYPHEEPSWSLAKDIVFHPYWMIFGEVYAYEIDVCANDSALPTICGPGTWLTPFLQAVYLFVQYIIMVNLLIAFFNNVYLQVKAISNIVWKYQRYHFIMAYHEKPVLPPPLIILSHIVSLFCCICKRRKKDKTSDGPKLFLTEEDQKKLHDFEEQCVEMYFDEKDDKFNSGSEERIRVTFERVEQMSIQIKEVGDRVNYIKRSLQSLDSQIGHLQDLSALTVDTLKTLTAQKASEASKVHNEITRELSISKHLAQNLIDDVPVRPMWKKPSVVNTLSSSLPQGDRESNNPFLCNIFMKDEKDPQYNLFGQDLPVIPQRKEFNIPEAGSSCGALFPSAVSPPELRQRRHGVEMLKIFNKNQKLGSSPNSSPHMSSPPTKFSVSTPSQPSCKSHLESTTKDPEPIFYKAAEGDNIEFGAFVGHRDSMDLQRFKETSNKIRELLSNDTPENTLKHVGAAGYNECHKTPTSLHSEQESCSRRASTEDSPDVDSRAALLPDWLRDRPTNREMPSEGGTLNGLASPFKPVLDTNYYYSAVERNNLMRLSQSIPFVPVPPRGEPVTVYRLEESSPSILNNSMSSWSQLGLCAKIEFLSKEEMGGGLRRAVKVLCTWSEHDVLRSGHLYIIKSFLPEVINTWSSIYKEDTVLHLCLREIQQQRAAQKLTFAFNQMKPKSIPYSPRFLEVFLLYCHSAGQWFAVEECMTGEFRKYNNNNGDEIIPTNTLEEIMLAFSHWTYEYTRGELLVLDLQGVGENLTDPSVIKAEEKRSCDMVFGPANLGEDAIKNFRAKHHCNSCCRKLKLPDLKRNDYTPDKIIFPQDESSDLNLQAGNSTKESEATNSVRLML

Tested on in the first test: not listed separately
Description: Inhibition of cell proliferation of human WERI cells at 10 uM incubated for 48 to 96 hrs. Format: functional.
Settings: not given
Usually inhibition stands for how much of the control response was suppressed. `COc1ccc(OC)c(SCc2nnc(-c3ccc([N+](=O)[O-])c(C)c3)o2)c1` showed an inhibition at 10 µM greater than 20%.

The next test deals with Transient receptor potential cation channel subfamily M member 7 (Mus musculus) (UniProt Q923J1). Description: Inhibition of Tet-induced Flag-tagged mouse TRPM7 expressed in HEK293 cells assessed as reduction in channel currents at 0.3 to 30 uM by whole cell patch clamp assay. Format: cell-based.
Sequence of Transient receptor potential cation channel subfamily M member 7 (Mus musculus) (Q923J1 whole entry): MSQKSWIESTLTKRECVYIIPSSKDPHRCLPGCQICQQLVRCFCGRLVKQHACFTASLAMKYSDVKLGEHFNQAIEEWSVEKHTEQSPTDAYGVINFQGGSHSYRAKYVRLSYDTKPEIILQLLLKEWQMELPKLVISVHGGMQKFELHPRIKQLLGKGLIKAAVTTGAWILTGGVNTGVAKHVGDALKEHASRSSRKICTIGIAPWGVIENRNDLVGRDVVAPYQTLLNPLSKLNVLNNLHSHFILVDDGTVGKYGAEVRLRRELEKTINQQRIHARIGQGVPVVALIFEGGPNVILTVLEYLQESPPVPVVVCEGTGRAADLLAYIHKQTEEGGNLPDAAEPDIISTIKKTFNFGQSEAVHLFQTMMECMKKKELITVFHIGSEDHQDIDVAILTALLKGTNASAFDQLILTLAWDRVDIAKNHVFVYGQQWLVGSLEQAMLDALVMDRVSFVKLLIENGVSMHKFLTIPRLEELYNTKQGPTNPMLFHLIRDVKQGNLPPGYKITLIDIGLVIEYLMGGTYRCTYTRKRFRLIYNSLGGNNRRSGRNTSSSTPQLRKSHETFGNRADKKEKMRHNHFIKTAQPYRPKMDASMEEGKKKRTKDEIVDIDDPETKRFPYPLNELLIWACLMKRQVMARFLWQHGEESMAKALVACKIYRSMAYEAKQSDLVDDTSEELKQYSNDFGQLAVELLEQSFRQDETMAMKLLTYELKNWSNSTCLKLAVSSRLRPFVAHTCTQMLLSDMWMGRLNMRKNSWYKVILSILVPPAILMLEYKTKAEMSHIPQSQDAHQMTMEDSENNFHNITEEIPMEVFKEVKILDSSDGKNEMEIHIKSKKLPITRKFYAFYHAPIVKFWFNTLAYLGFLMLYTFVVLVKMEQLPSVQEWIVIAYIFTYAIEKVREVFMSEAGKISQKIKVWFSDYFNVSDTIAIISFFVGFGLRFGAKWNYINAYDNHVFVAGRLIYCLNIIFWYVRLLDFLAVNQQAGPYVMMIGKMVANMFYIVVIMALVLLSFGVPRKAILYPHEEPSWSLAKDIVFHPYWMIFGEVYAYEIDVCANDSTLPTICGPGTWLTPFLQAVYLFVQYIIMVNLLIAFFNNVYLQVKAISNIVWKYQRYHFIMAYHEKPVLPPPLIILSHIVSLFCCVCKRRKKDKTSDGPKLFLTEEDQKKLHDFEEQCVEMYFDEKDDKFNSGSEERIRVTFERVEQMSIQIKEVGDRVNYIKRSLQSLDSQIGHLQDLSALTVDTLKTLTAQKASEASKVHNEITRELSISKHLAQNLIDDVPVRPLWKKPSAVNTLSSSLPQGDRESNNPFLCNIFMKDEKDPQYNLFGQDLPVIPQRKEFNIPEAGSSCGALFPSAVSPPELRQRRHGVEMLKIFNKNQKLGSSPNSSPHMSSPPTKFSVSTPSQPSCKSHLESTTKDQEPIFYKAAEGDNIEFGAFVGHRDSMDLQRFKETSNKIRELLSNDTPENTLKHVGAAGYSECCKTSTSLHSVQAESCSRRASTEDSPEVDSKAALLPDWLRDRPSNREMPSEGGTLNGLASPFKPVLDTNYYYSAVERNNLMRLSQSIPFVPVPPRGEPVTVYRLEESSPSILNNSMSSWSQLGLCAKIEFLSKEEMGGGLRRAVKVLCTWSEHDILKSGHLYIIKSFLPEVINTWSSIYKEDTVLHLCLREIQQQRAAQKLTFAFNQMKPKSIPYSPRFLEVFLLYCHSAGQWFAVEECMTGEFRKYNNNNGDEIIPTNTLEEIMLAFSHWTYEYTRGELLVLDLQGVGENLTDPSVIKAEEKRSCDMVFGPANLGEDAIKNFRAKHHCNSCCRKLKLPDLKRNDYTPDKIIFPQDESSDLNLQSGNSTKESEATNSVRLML
Settings: not given
A general note: In patch-clamp work, channel activity is measured electrically.
As to `COc1ccc(OC)c(SCc2nnc(-c3ccc([N+](=O)[O-])c(C)c3)o2)c1`, the inhibition entry was “Active”.

Another test has the same target. Description: Inhibition of Tet-induced Flag-tagged mouse TRPM7 expressed in HEK293 cells assessed as inhibition of channel-mediated cell death in presence of Mg2+ incubated for 24 to 48 hrs by propidium iodide uptake assay. Format: cell-based. More on the design: concentration or dose not given beside the values.
Settings: not given
Regarding `COc1cc2c(cc1OC)-c1c/c(=N\c3c(C)cc(C)cc3C)n(C)c(=O)n1CC2`, the inhibition result was “Dose-dependent effect”. As to `Ic1ccccc1CN[C@@H]1C2CCN(CC2)[C@@H]1C(c1ccccc1)c1ccccc1` (relative stereo), the inhibition result was “Dose-dependent effect”. Still for that read-out and setting: for `COc1ccccc1N1CCN(CC(O)COc2cccc3ccccc23)CC1` (stereo not drawn) the value was “Dose-dependent effect”; for `COc1cccc(OC)c1OCCNCC1CSc2ccccc2O1` (stereo not drawn), “Dose-dependent effect”; for `CCOc1ccc(Cc2nccc3cc(OCC)c(OCC)cc23)cc1OCC`, “Dose-dependent effect”. With `COc1ccc(C[C@H](N)C(=O)N[C@H]2[C@@H](O)[C@H](n3cnc4c(N(C)C)ncnc43)O[C@@H]2CO)cc1`, the inhibition entry is “Dose-dependent effect”.

Staying with this test, now noted: concentration not given here.
For `COc1ccc(OC)c(SCc2nnc(-c3ccc([N+](=O)[O-])c(C)c3)o2)c1`, the inhibition stood at 80%.

As for `Cc1nc(N/C=N/O)c(Br)cc1Br`, the inhibition stood at 30%. Regarding `Cc1cc(C)cc(N/C=C(\C#N)S(=O)(=O)c2ccc(Cl)cc2)c1`, the inhibition is less than 30%. On the same count and under the same terms, to `CCOC(=O)c1cc(C)nn1C(=O)c1ccccc1Cl` belongs 30%; to `CC(=O)C(C#N)c1nc(-c2ccc(F)cc2)cs1` (stereo not drawn), 70%. `O=C1NC(=S)S/C1=C\c1cccc([N+](=O)[O-])c1`: the inhibition is less than 30%. In the case of `O=C(CSc1ssc(=S)c1-c1ccccc1)Nc1ccc(Cl)cc1`, the inhibition was less than 30%. In the case of `Cc1cc(C(=O)NNC(=O)Nc2ccc(Cl)cc2)no1`, the inhibition amounted to 30%. On the same count and under the same terms, for `FC(F)(F)c1ccc(C2c3ccsc3CCN2C(=S)Nc2ccc(Cl)cc2Cl)cc1` (stereo not drawn) the value was 70%. On the same count and under the same terms, to `CC(C)c1ccc(NC(=O)c2c(-c3ccccc3)nnc3ccccc23)cc1` belongs less than 30%; to `C#CCOC(=O)NC(=O)c1c(-c2ccc(Cl)cc2)n[nH]c1SC`, less than 30%. On the same count and under the same terms, for `OC(CN1CCN(C(c2ccccc2)c2ccccc2)CC1)c1ccccc1` (stereo not drawn) the value was 60%; for `Cc1cc2c(cc1C)CSC(C)(c1ccc(F)cc1)SC2`, less than 30%. Take `COc1ccc2c(c1)CC/C(=C\c1ccc(Cl)cc1Cl)C2=O`: the inhibition was determined as 60%. Turning to `O=c1ccsn1-c1ccc(F)c(Cl)c1`, the inhibition was less than 30%. Still for that read-out and setting: to `O=c1ccn(-c2ccc(F)cc2)nc1-c1ccnc(SCc2ccc(C(F)(F)F)cc2)n1` belongs less than 30%; to `CC(C)(C)c1ccc(-c2nc(CSc3ccc(Cl)cc3)no2)s1`, 60%; to `CC(C)(C)S(=O)(=O)/C(C#N)=C/N/N=C/c1ccccc1Cl`, less than 30%. On the same count and under the same terms, to `CCOC(=O)C(=CNc1cc(OC)cc(C(F)(F)F)c1)C(=O)OCC` belongs 70%. Same read-out and setting: for `O=C(CSC1CN(C(c2ccccc2)c2ccccc2)C1)N/N=C/c1ccncc1` the value was 50%; for `O=S(=O)(NCc1cccs1)c1ccc(Sc2ncc(C(F)(F)F)cc2Cl)s1`, less than 30%; for `CN1c2ccccc2C(C)(C)C12C=Cc1c(ccc3ccccc13)O2` (stereo not drawn), less than 30%. With `COc1cc2c(cc1OCC(=O)Nc1ccc(C)cc1)C=CC(C)(C)O2`, the inhibition was found to be 30%. On the same count and under the same terms, to `Cc1onc(-c2ccccc2Cl)c1C(=O)Nc1cccc2cccnc12` belongs 60%; to `CSc1scc2c1-c1n[nH]cc1CC2`, less than 30%.

On to `c1ccc2c(CNCc3cccc4ccccc34)cccc2c1`, for which the inhibition stood at 70%. Still for that read-out and setting: for `CN(C(=O)c1cnc(Oc2ccc(Cl)cc2)cc1C(F)(F)F)c1ccc(Cl)c(Cl)c1` the value was 60%. Still for that read-out and setting: to `O=c1[nH]c2c(Cl)c(Cl)ccc2c(O)c1-c1ccccc1` belongs 60%; to `O=[N+]([O-])C1=Cc2c(ccc3ccccc23)OC1c1c(Cl)cccc1Cl` (stereo not drawn), 60%; to `CC1(C)C=Cc2ccc(OCC(=O)Nc3ccccc3)cc2O1`, 30%. The same measure, in the same setting: to `CO[C@@H]1O[C@@H]2CO[C@H](COC(C)=O)[C@]3(OC(C)=O)CO[C@H](OC2[C@H](OC(C)=O)[C@H]1OC(C)=O)[C@@H](OC(C)=O)[C@@H]3OC(C)=O` (stereo partly drawn) belongs 40%; to `Cc1cc(C)c(-n2nnnc2SCC(=O)Nc2ccccc2Cl)c(C)c1`, less than 30%; to `OC1(C(F)(F)F)CC(c2cccs2)=NO1` (stereo not drawn), 30%.

On to `N#C/C(=N\Nc1ccc(Cl)cc1)C(N)=S`, for which the inhibition amounted to 60%.

With `COc1ccccc1N1CCN(Cc2c[nH]c(-c3ccccc3)n2)CC1`, the inhibition is less than 30%. The same measure, in the same setting: for `COC(=O)C1=CNC(CC(CC=O)c2ccc(F)cc2)=CC1c1ccc(N(C)C)cc1Cl` (stereo not drawn) the value was less than 30%; for `CS/C(=N/C(C)(C)C)Nc1ccccc1Cl`, less than 30%. Still for that read-out and setting: to `Cc1cc(O)nc2c1c(C)nn2C` belongs less than 30%; to `Cc1noc(C)c1C(=O)OCc1ccc(-c2ccc(F)cc2F)o1`, 50%.

Regarding `Cc1ccc(NC(=O)c2c(-c3ccccc3Cl)noc2C)cc1F`, the inhibition is less than 30%.

Take `CCOC(=O)C1=C(C)NC(=O)NC1c1cccc2ccccc12` (stereo not drawn): the inhibition was less than 30%.

Turning to `Clc1ccc(-c2noc(-c3sccc3Cl)n2)cc1`, the inhibition came to 60%.

As to `CC(C)(C)c1cc2nc(C(F)(F)F)cc(N3CCN(S(=O)(=O)c4ccccc4)CC3)n2n1`, the inhibition was less than 30%. For the compound `Cc1ccc2c(c1)CCCN2C(=S)Nc1cccc(Cl)c1`, the inhibition was less than 30%.

For `O=C(CSc1nccc(-c2cc(-c3ccc(Cl)cc3Cl)no2)n1)Nc1ccc(Cl)cc1`, the inhibition worked out at 30%. Take `O=C(Oc1ccc([N+](=O)[O-])cc1)c1c(Cl)cccc1Cl`: the inhibition came out at 50%.

As to `Cc1onc(-c2c(Cl)cccc2Cl)c1C(=O)Oc1ccc2c(C(F)(F)F)cc(=O)oc2c1`, the inhibition is less than 30%.

The target is the same in another test. The experiment in a line: Inhibition of TRPM7 in mouse primary neuronal cells exposed to oxygen glucose deprivation condition for 1 to 3 hrs assessed as reduction in TRPM7-mediated anoxic cell death dosed before oxygen glucose deprivation condition by propidium iodide uptake assay. The note with it: Primary neuron.
As for `COc1ccc(OC)c(SCc2nnc(-c3ccc([N+](=O)[O-])c(C)c3)o2)c1`, the inhibition result was “Active”.

The next test has as its target Transient receptor potential cation channel subfamily M member 7 (Rattus norvegicus) (UniProt Q925B3). The experiment in a line: Inhibition of TRPM7 in rat H9C2 cells assessed as reduction in channel currents at 0.3 to 30 uM by whole cell patch clamp assay. The test is classed as cell-based.
Settings: not given
With `COc1ccc(OC)c(SCc2nnc(-c3ccc([N+](=O)[O-])c(C)c3)o2)c1`, the inhibition entry is “Active”.

The target in the next test is Transient receptor potential cation channel subfamily M member 7 (Mus musculus) (UniProt Q923J1). The experiment in a line: Inhibition of TRPM7 in mouse mouse primary cortical neurons exposed to 2 hrs oxygen glucose deprivation condition assessed as reduction in TRPM7-mediated anoxic cell death measured after 20 hrs by propidium iodide uptake assay. Format: cell-based. The conditions noted are these: Cerebral cortex neuron.
For the compound `COc1ccc(OC)c(SCc2nnc(-c3ccc([N+](=O)[O-])c(C)c3)o2)c1`, the inhibition entry was “Active”.

For another test, the system named is HEK293. Description: Effect on Tet-induced Flag-tagged mouse TRPM7 expression in HEK293 cells. Format: functional, cell-based. The conditions noted are these: Homo sapiens.
On to `COc1cc2c(cc1OC)-c1c/c(=N\c3c(C)cc(C)cc3C)n(C)c(=O)n1CC2`, for which the outcome was inactive.

Regarding `COC(=O)C1=C(C)NC(C)=C(C(=O)OCCN(C)Cc2ccccc2)C1c1cccc([N+](=O)[O-])c1` (stereo not drawn), the result was inactive. On to `CCN(CC)CCCC(C)Nc1c2ccc(Cl)cc2nc2ccc(OC)cc12` (stereo not drawn), for which the outcome was inactive. The same measure, in the same setting: to `Ic1ccccc1CN[C@@H]1C2CCN(CC2)[C@@H]1C(c1ccccc1)c1ccccc1` (relative stereo) belongs “inactive”; to `C[n+]1cc2c3c(ccc2c2ccc4cc5c(cc4c21)OCO5)OCO3`, “inactive”.

Turning to `COc1ccccc1N1CCN(CC(O)COc2cccc3ccccc23)CC1` (stereo not drawn), the outcome was inactive.

As to `O=C1c2c(O)ccc(O)c2C(=O)c2c(NCCNCCO)ccc(NCCNCCO)c21`, the result was inactive.

Take `O=C(O)c1cc(=O)cc(C(=O)O)[nH]1`: the result was inactive.

Consider `COc1cccc(OC)c1OCCNCC1CSc2ccccc2O1` (stereo not drawn), for which the result was inactive.

The target of a further test is Transient receptor potential cation channel subfamily M member 7 (Mus musculus) (UniProt Q923J1). The experiment in a line: Inhibition of TRPM7 in mouse primary neuronal cells exposed to oxygen glucose deprivation condition for 1 to 3 hrs assessed as reduction in TRPM7-mediated anoxic cell death dosed after oxygen glucose deprivation condition by propidium iodide uptake assay. The conditions noted are these: Primary neuron.
Take `COc1ccc(OC)c(SCc2nnc(-c3ccc([N+](=O)[O-])c(C)c3)o2)c1`: the inhibition entry was “Active”.

The record behind these values is ChEMBL document CHEMBL3727350, “Agents and methods for treating ischemic and other diseases” (2014).
